# How the values were obtained:
# Lck (h) = Lck (h) (Homo sapiens, UniProt P06239); assay: Lck Human  Kinase Enzymatic Radiometric Assay; assay type: biochemical; conditions: read-out: Lck IC50 nM Range*
# How it was run: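 Substrate 33P-incorporation measured by scintillation counting after spotting on P30 filtermat and phosphoric acid washes. Human Lck reacted 40 min at RT in 50 mM Tris pH 7.5 with 10 mM MgAcetate, [gamma-33P]-ATP, 250 uM Cdc2 peptide, 0.1 mM EGTA and 0.1 mM Na3VO4.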
# [1] = molecular target: T1, Recombinant (1-346) HPK1 (h) (Homo sapiens, UniProt Q92918); assay: HPK1 Human STE Kinase Enzymatic Radiometric Assay; assay type: biochemical; conditions: read-out: HPK1 IC50 nM Range*
# T1 construct: Recombinant (1-346) HPK1 (h) is incubated with 8 mM MOPS pH 7.0
# T1 sequence (Q92918 1-346): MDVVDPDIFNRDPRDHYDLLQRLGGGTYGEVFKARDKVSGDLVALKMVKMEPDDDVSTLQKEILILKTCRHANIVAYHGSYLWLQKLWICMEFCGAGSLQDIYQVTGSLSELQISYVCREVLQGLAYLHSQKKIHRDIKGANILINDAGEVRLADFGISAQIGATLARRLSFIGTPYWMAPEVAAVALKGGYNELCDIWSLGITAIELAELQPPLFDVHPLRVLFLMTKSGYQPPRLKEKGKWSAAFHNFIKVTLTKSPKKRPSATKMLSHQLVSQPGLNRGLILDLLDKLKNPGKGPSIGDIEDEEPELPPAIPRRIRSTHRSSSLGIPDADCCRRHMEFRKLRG
# Method: A stock solution of 10 mM of test compound is prepared in DMSO. The compound plate was prepared by 3-fold and 9-point serial dilutions. […] The reaction is initiated by The addition of the Mg/ATP mix. After incubation for 40 minutes at RT, the reaction is stopped by the addition of phosphoric acid to a concentration of 0.5%.
# Sequence of Lck (h) (P06239 whole entry): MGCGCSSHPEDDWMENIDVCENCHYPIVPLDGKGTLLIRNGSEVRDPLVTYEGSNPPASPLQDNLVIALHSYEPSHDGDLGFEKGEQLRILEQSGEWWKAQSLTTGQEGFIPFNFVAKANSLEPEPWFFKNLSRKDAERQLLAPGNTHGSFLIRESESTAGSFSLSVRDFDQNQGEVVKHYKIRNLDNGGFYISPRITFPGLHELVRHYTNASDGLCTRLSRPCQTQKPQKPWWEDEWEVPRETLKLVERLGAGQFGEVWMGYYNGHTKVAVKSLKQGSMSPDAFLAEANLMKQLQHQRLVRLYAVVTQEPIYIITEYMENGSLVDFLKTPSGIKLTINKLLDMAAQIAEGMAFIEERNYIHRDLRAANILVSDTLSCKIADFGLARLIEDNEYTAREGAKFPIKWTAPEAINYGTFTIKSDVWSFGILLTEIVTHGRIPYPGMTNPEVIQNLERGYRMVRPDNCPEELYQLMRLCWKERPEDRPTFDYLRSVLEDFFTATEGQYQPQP
SMILES,IC50 (Lck (h)) [nM],IC50 [1] [nM]
"Nc1nc(F)c(-c2ccc(C3=CCNCC3)cc2)cc1-c1ccc2c(c1)CCNC2=O [I-57, 6-(2-amino-6-fluoro-5-(4-(1,2,3,6-tetrahydropyridin-4-yl)phenyl)pyridin-3-yl)-3,4-dihydroisoquinolin-1(2H)-one 2,2,2-trifluoroacetate]",> 1000,0.1 to 10
"Nc1nc(F)c(-c2ccc([C@@]34C[C@@H]3CN(CC(F)F)C4)cc2)cc1-c1ccc2c(c1)CCNC2=O [I-72, 6-(2-amino-5-(4-((1R,5S)-3-(2,2-difluoroethyl)-3-azabicyclo[3.1.0]hexan-1-yl)phenyl)-6-fluoropyridin-3-yl)-3,4-dihydroisoquinolin-1(2H)-one]",> 1000,11 to 100
"Nc1nc(F)c(-c2ccc(C3=CCN(CC(F)F)CC3)cc2)cc1-c1ccc2c(c1)CCNC2=O [I-73, 6-(2-amino-5-(4-(1-(2,2-difluoroethyl)-1,2,3,6-tetrahydropyridin-4-yl)phenyl)-6-fluoropyridin-3-yl)-3,4-dihydroisoquinolin-1(2H)-one]",> 1000,0.1 to 10
"CN1CCN(c2ccc(-c3cc(-c4ccc5c(c4)CCNC5=O)c(N)nc3Cl)cc2)CC1 [I-74, 6-(2-amino-6-chloro-5-(4-(4-methylpiperazin-1-yl)phenyl)pyridin-3-yl)-3,4-dihydroisoquinolin-1(2H)-one]",> 1000,11 to 100
"CCN1CCN(c2ccc(-c3cc(-c4ccc5c(c4)CCNC5=O)c(N)nc3Cl)cc2)CC1 [I-75, 6-(2-amino-6-chloro-5-(4-(4-ethylpiperazin-1-yl)phenyl)pyridin-3-yl)-3,4-dihydroisoquinolin-1(2H)-one]",> 1000,11 to 100
"CCN1CC=C(c2ccc(-c3cc(-c4ccc5c(c4)CCNC5=O)c(N)nc3F)cc2)CC1 [I-76, 6-(2-amino-5-(4-(1-ethyl-1,2,3,6-tetrahydropyridin-4-yl)phenyl)-6-fluoropyridin-3-yl)-3,4-dihydroisoquinolin-1(2H)-one]",> 1000,0.1 to 10
"CC(C)[C@H]1CN(c2ccc(-c3cc(-c4cc5c(cn4)C(=O)NCC5)c(N)nc3F)cc2)CCO1 [I-77, (S)-6-(2-amino-6-fluoro-5-(4-(2-isopropylmorpholino)phenyl)pyridin-3-yl)-3,4-dihydro-2,7-naphthyridin-1(2H)-one 2,2,2-trifluoroacetate]",> 1000,0.1 to 10
"Nc1nc(F)c(-c2ccc(C3CCCN(CC(F)F)C3)cc2)cc1-c1ccc2c(c1)CCNC2=O (stereo not drawn) [I-78, 6-(2-amino-5-(4-(1-(2,2-difluoroethyl)piperidin-3-yl)phenyl)-6-fluoropyridin-3-yl)-3,4-dihydroisoquinolin-1(2H)-one]",> 1000,0.1 to 10
"CC(C)N1CCC(c2ccc(-c3cc(-c4ccc5c(c4)CCNC5=O)c(N)nc3F)cc2)CC1 [I-79, 6-(2-amino-6-fluoro-5-(4-(1-isopropylpiperidin-4-yl)phenyl)pyridin-3-yl)-3,4-dihydroisoquinolin-1(2H)-one]",> 1000,0.1 to 10
"CC(C)N1CCCC(c2ccc(-c3cc(-c4ccc5c(c4)CCNC5=O)c(N)nc3F)cc2)C1 (stereo not drawn) [I-80, 6-(2-amino-6-fluoro-5-(4-(1-isopropylpiperidin-3-yl)phenyl)pyridin-3-yl)-3,4-dihydroisoquinolin-1(2H)-one]",> 1000,0.1 to 10
"CC(C)N1CC=C(c2ccc(-c3cc(-c4ccc5c(c4)CCNC5=O)c(N)nc3F)cc2)CC1 [I-81, 6-(2-amino-6-fluoro-5-(4-(1-isopropyl-1,2,3,6-tetrahydropyridin-4-yl)phenyl)pyridin-3-yl)-3,4-dihydroisoquinolin-1(2H)-one]",> 1000,0.1 to 10
"Nc1nc(F)c(-c2ccc(C3CCCN(CCO)C3)cc2)cc1-c1ccc2c(c1)CCNC2=O (stereo not drawn) [I-82, 6-(2-amino-6-fluoro-5-(4-(1-(2-hydroxyethyl)piperidin-3-yl)phenyl)pyridin-3-yl)-3,4-dihydroisoquinolin-1(2H)-one]",> 1000,0.1 to 10
"CC(C)(C)OC(=O)N1CCC(S(=O)(=O)c2ccc(-c3cc(-c4ccc5c(c4)CCNC5=O)c(N)nc3F)cc2)CC1 [I-83, tert-butyl 4-((4-(6-amino-2-fluoro-5-(1-oxo-1,2,3,4-tetrahydroisoquinolin-6-yl)pyridin-3-yl)phenyl)sulfonyl)piperidine-1-carboxylate]",> 1000,11 to 100
"Nc1nc(F)c(-c2ccc(S(=O)(=O)C3CNC3)cc2)cc1-c1ccc2c(c1)CCNC2=O [I-84, 6-(2-amino-5-(4-(azetidin-3-ylsulfonyl)phenyl)-6-fluoropyridin-3-yl)-3,4-dihydroisoquinolin-1(2H)-one]",> 1000,11 to 100

# Next, values leading:
IC50 (Lck (h)) [nM],IC50 [1] [nM],SMILES
> 1000,0.1 to 10,"CN1CCOc2cc(-c3cc(-c4ccc5c(c4)CCNC5=O)c(N)nc3F)ccc21 [I-58, 6-(2-amino-6-fluoro-5-(4-methyl-3,4-dihydro-2H-benzo[b][1,4]oxazin-7-yl)pyridin-3-yl)-3,4-dihydroisoquinolin-1(2H)-one]"
> 1000,11 to 100,"Nc1nc(F)c(-c2ccc(N3CCCC3)cc2)cc1-c1ccc2c(c1)CCNC2=O [I-59, 6-(2-amino-6-fluoro-5-(4-(pyrrolidin-1-yl)phenyl)pyridin-3-yl)-3,4-dihydroisoquinolin-1(2H)-one]"
> 1000,0.1 to 10,"CN1CCN(c2ccc(-c3cc(-c4ccc5c(c4)CCNC5=O)c(N)nc3F)c(Cl)c2)CC1 [I-61, 6-(2-amino-5-(2-chloro-4-(4-methylpiperazin-1-yl)phenyl)-6-fluoropyridin-3-yl)-3,4-dihydroisoquinolin-1(2H)-one]"
> 1000,0.1 to 10,"CS(=O)(=O)c1ccc(-c2cc(-c3ccc4c(c3)CCNC4=O)c(N)nc2F)cc1 [I-62, 6-(2-amino-6-fluoro-5-(4-(methylsulfonyl)phenyl)pyridin-3-yl)-3,4-dihydroisoquinolin-1(2H)-one]"
> 1000,0.1 to 10,"Nc1nc(F)c(-c2ccc(S(=O)(=O)C3CC3)cc2)cc1-c1ccc2c(c1)CCNC2=O [I-63, 6-(2-amino-5-(4-(cyclopropylsulfonyl)phenyl)-6-fluoropyridin-3-yl)-3,4-dihydroisoquinolin-1(2H)-one]"
> 1000,0.1 to 10,"CN(C)S(=O)(=O)c1ccc(-c2cc(-c3ccc4c(c3)CCNC4=O)c(N)nc2F)cc1 [I-64, 4-(6-amino-2-fluoro-5-(1-oxo-1,2,3,4-tetrahydroisoquinolin-6-yl)pyridin-3-yl)-N,N-dimethylbenzenesulfonamide]"
> 1000,11 to 100,"CCN(CC)S(=O)(=O)c1ccc(-c2cc(-c3ccc4c(c3)CCNC4=O)c(N)nc2F)cc1 [I-65, 4-(6-amino-2-fluoro-5-(1-oxo-1,2,3,4-tetrahydroisoquinolin-6-yl)pyridin-3-yl)-N,N-diethylbenzenesulfonamide]"
> 1000,0.1 to 10,"Nc1nc(F)c(-c2ccc([C@@]34C[C@@H]3CN(C3CCOCC3)C4)cc2)cc1-c1ccc2c(c1)CCNC2=O [I-66, 6-(2-amino-6-fluoro-5-(4-((1R,5S)-3-(tetrahydro-2H-pyran-4-yl)-3-azabicyclo[3.1.0]hexan-1-yl)phenyl)pyridin-3-yl)-3,4-dihydroisoquinolin-1(2H)-one]"
> 1000,11 to 100,"CCN1CCN(c2ccc(-c3cc(-c4ccc5c(c4)CCCNC5=O)c(N)nc3F)cc2)CC1 [I-67, 7-(2-amino-5-(4-(4-ethylpiperazin-1-yl)phenyl)-6-fluoropyridin-3-yl)-2,3,4,5-tetrahydro-1H-benzo[c]azepin-1-one]"
> 1000,0.1 to 10,"CN1CCN(c2ccc(-c3cc(-c4ccc5c(c4)CCNC5=O)c(N)nc3F)cc2C(F)(F)F)CC1 [I-68, 6-(2-amino-6-fluoro-5-(4-(4-methylpiperazin-1-yl)-3-(trifluoromethyl)phenyl)pyridin-3-yl)-3,4-dihydroisoquinolin-1(2H)-one]"
101 to 1000,0.1 to 10,"CCN1CCN(c2ccc(-c3cc(-c4ccc5c(c4)C(C)(C)CNC5=O)c(N)nc3F)cc2)CC1 [I-69, 6-(2-amino-5-(4-(4-ethylpiperazin-1-yl)phenyl)-6-fluoropyridin-3-yl)-4,4-dimethyl-3,4-dihydroisoquinolin-1(2H)-one]"
> 1000,11 to 100,"CCN1CCN(c2ccc(-c3cc(-c4ccc5c(c4)CC(C)(C)NC5=O)c(N)nc3F)cc2)CC1 [I-70, 6-(2-amino-5-(4-(4-ethylpiperazin-1-yl)phenyl)-6-fluoropyridin-3-yl)-3,3-dimethyl-3,4-dihydroisoquinolin-1(2H)-one 2,2,2-trifluoroacetate]"
> 1000,0.1 to 10,"CCN1C[C@H]2C[C@@]2(c2ccc(-c3cc(-c4ccc5c(c4)CCNC5=O)c(N)nc3F)cc2)C1 [I-71, 6-(2-amino-5-(4-((1R,5S)-3-ethyl-3-azabicyclo[3.1.0]hexan-1-yl)phenyl)-6-fluoropyridin-3-yl)-3,4-dihydroisoquinolin-1(2H)-one]"

# Source: patent US20240343704A1, “HALO-SUBSTITUTED AMINO PYRIDINE COMPOUNDS AS INHIBITORS OF THE HAEMATOPOIETIC PROGENITOR KINASE 1 (HPK1)” (priority 2021, published 2024)
